Experiment [1] has as its system transformed cells TM182-AHK2-CYC1IPT4. Description: Liquid culture of transformed cell TM182-AHK2-CYC1IPT4 with examinee substance, absorbance. The class given is cell-based, yeast. The settings on record: Table 4, TM182-AHK2-CYC1-IPT4, 1 μL of 200 ppm DMSO solution per 100 μL, DOHLU+Glu, 30° C. for 24 hours. As for the experimental part:
The thus obtained culture solutions were diluted with DOHLU+Glu culture medium so that OD600 became 0.200, and then the diluted ones were further diluted with DOHLU+Glu culture medium at a dilution rate of 1/200 to obtain diluted pre-cultured solutions.
A 96-well assay plate was prepared by filling each well with 1 μL of a DMSO solution of an examinee substance (Abscisic acid or 6-Benzyl aminopurine). In this regard, it is to be noted that the DMSO solution of a examinee substance was prepared so that the concentration thereof became 200 ppm. Simultaneously, an assay plate was prepared by filling each well with 1 μL of DMSO as a blank section.
Each of the diluted pre-cultured solutions was added in a volume of 100 μL per each well of both of the assay plates, and was cultured at 30° C. for 24 hours. After incubation, the turbidity of each well was measured using a plate reader. The absorbance (OD600) of each of the culture solutions of the transformed cells containing the examinee substance was shown in Table 4. […] Further, the growth speeds of the transformed cells TM182-CRE1-ADHIPT4, TM182-AHK2-CYC1IPT4, TM182-AHK2-CYC1IPT5 and TM182-AHK2-ADHIPT5 in the culture medium to which 6-Benzyl aminopurine was added were faster than those in the culture medium to which only DMSO was added.

In experiment [2] the test system is transformed cells TM182-AHK2-ADHIPT4. To be noted: TM182-AHK2-ADHIPT4, DOHLU+Glu agar containing 10 μM trans-zeatin, 30° C. for 30 hours. As for the experimental part:
(§1) After incubation, the growth state of the transformed cells was observed and photographed by a digital camera.

In experiment [3] the test system is transformed cells TM182-CYC1-ADHIPT4. To be noted: TM182-CYC1-ADHIPT4, DOHLU+Glu agar containing 10 μM trans-zeatin, 30° C. for 30 hours. How it is done:
as §1

Experiment [4] has as its system transformed cells TM182-CYC1-CYC1IPT5. To be noted: TM182-CYC1-CYC1IPT5, DOHLU+Glu agar containing 10 μM trans-zeatin, 30° C. for 30 hours. How it is done:
as §1

Experiment [5] relates to transformed cells TM182-CRE1-CYC1IPT4. To be noted: TM182-CRE1-CYC1IPT4, DOHLU+Glu agar containing 10 μM trans-zeatin, 30° C. for 30 hours. As for the experimental part: as §1
Experiment [6] concerns transformed cells TM182-CYC1-ADHIPT5. To be noted: TM182-CYC1-ADHIPT5, DOHLU+Glu agar containing 10 μM trans-zeatin, 30° C. for 30 hours. How it is done: as §1
Experiment [7] has as its system transformed cells TM182-AHK2-ADHIPT5. The settings on record: TM182-AHK2-ADHIPT5, DOHLU+Glu agar containing 10 μM trans-zeatin, 30° C. for 30 hours. As for the experimental part: as §1
Experiment [8] concerns transformed cells TM182-CYC1-CYC1IPT4. To be noted: TM182-CYC1-CYC1IPT4, DOHLU+Glu agar containing 10 μM trans-zeatin, 30° C. for 30 hours. As for the experimental part: as §1
Experiment [9] deals with transformed cells TM182-CRE1-ADHIPT4. To be noted: TM182-CRE1-ADHIPT4, DOHLU+Glu agar containing 10 μM trans-zeatin, 30° C. for 30 hours. As for the experimental part: as §1
For experiment [10], the system named is transformed cells TM182-AHK2-CYC1IPT5. The settings on record: TM182-AHK2-CYC1IPT5, DOHLU+Glu agar containing 10 μM trans-zeatin, 30° C. for 30 hours. As for the experimental part: as §1
The target of another experiment is T1, cytokinin receptor AHK3 (Arabidopsis thaliana, UniProt Q9C5U1).
T1 sequence (Q9C5U1 1-1036): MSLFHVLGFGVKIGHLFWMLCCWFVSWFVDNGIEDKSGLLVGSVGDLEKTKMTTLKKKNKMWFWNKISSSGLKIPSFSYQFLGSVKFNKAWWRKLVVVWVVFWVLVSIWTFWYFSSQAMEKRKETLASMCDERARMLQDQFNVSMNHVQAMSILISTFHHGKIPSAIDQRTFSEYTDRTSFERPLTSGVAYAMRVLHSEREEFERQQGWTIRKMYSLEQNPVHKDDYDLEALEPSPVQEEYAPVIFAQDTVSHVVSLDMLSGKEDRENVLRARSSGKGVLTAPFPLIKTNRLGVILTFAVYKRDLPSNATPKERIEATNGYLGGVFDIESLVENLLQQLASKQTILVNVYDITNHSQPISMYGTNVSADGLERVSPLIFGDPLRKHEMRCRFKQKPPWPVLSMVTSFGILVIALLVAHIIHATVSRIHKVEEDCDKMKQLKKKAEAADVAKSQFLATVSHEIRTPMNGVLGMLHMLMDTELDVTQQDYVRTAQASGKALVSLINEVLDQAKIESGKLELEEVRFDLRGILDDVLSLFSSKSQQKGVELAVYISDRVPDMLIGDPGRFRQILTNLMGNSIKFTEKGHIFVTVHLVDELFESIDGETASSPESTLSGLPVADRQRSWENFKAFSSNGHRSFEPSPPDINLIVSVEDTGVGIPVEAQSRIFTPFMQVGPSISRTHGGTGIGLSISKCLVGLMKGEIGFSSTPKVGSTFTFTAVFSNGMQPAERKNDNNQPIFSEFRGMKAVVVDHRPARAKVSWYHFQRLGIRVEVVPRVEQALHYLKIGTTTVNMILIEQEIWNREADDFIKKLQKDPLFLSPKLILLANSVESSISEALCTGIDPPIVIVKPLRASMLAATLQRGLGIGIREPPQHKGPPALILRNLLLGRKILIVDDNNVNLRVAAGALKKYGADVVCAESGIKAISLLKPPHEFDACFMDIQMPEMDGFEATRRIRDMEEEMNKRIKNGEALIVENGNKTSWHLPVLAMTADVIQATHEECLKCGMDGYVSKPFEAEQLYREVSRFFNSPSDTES
The settings on record: TM182-AHK3, DOLU+Glu agar, 10 μM, 30° C. for 30 hours. How it is done: A culture solution 10 μl (about 800 clones of yeast) of the transformed cells TM182-CRE1, TM182-AHK2, TM182-AHK2Δ and TM182-AHK3 produced by the example 12 was spotted on DOLU+Glu agar media containing 10 μM of trans-zeatin and cultured at 30° C. for 30 hours. After incubation, the growth state of the transformed cells was observed and photographed by a digital camera.

Consider `CC1=CC(=O)CC(C)(C)[C@@]1(O)/C=C/C(C)=C\C(=O)O` [Compound A, Abscisic acid], for which the “absorbance (OD600) of the culture solution” value in experiment [1] amounted to 0.194.
As for `c1ccc(CNc2ncnc3nc[nH]c23)cc1` [Compound B, 6-Benzyl aminopurine], the “absorbance (OD600) of the culture solution” value in experiment [1] worked out at 0.339.
Consider `C/C(=C\CNc1ncnc2nc[nH]c12)CO` [trans-zeatin], for which the “growth state of the transformed cells” value was “observed to grow” in [2]; “not observed to grow” in experiment [3]; “not observed to grow” in [4]; “observed to grow” in experiment [5]; “not observed to grow” in experiment [6]; “observed to grow” in experiment [7]. The figures for the “growth state of the transformed cells” value in [8], in experiment [9] and in experiment [10] were “not observed to grow”, “observed to grow” and “observed to grow”, respectively. The “growth state of the transformed cells as compared with media containing no trans-zeatin” value on cytokinin receptor AHK3 was “high growth”.

(Values after patent publication US20050164370A1 (priority 2003, published 2005).)
